Columns and labels:
[1] = system: patients with Severe Refractory Chronic Hand Eczema (CHE); assay: Clinical trial simulation (longitudinal dose response model): no relapse (PGA ≠ 5) by 6 months post treatment; type: in vivo, human; settings: duration of treatment 24 weeks; 30 mg
Protocol: In reviewing the data to make these determinations, all available PGA scores observed (not including scores derived from missing data such as last observation carried forward (LOCF) including those at baseline, every 4 weeks during treatment, and every 4 to 8 weeks after cessation of treatment for up to 72 weeks post treatment from the various clinical trials were used to develop a longitudinal dose response model.
(§1) In clinical studies, efficacy was measured using PGA score and modified total lesion signs and symptoms (mTLSS) at various times during and post treatment. PGA scores over time were chosen for this analysis because PGA scores were the primary endpoint in the Phase III studies and were collected at more time points than the mTLSS. The PGA was graded according to 5 point scale (clear, almost clear, mild disease, moderate disease, severe disease). The mTLSS severity score was graded 0 to 3 for 7 parameters.
(§2) For the Physician Global Assessment (PGA), a general description of CHE severity, which is a well recognized scale is shown below in Table 7 for clarification purposes.

[2] = system: patients with Severe Refractory Chronic Hand Eczema (CHE); assay: Clinical trial simulation (longitudinal dose response model): PGA score at end of treatment; type: in vivo, human; settings: 30 mg
Protocol: as §1, §2

For `CC1=C(/C=C/C(C)=C\C=C\C(C)=C\C(=O)O)C(C)(C)CCC1` [Alitretinoin, 9-cis isomer of retinoic acid (RA)], which “Proportion of Responders Who Did Not Relapse (PGA ≠ 5) 6 months Post Treatment” value [1] is on record?
Its value is 84.4 (75, 93) %.

And the “Proportion of Subjects with PGA = 1 Who Did Not Relapse (PGA ≠ 5) 6 Months Post Treatment” value [1]?
Its value is 83.7 (67, 94) %.

And the “Proportion of Subjects with PGA = 2 Who Did Not Relapse (PGA ≠ 5) 6 Months Post Treatment” value [1]?
The value was 83.3 (70, 95) %.

What about the “Proportion of Subjects with PGA = 3 Who Did Not Relapse (PGA ≠ 5) 6 Months Post Treatment” value [1] of the same compound?
The value was 81.6 (68, 92) %.

And the “Proportion of Responders (PGA = 1 or 2) at End of Treatment” value (“Proportion of Responders … of Treatment” for short) ([2]; age 30 yr)?
Its value is 33.9 (26, 42) %.

What about the “Proportion of Subjects (PGA = 2) at End of Treatment” value ([2]; age 30 yr) of the same compound?
The value was 22.9 (16, 30) %.

And the “Proportion of Subjects (PGA = 3) at End of Treatment” value ([2]; age 30 yr)?
The value was 28.4 (21, 36) %.

And the “Proportion of Responders … of Treatment” value ([2]; age 50 yr)?
Its value is 41.1 (33, 49) %.

What about the “Proportion of Subjects (PGA = 1) at End of Treatment” value ([2]; age 50 yr) of the same compound?
Its value is 14.9 (9, 21) %.

And the “Proportion of Subjects (PGA = 2) at End of Treatment” value ([2]; age 50 yr)?
Its value is 26.3 (20, 34) %.

What about the “Proportion of Subjects (PGA = 3) at End of Treatment” value ([2]; age 50 yr) of the same compound?
Its value is 28.3 (20, 35) %.

What about the “Proportion of Responders … of Treatment” value ([2]; age 65 yr) of the same compound?
Its value is 48.0 (40, 56) %.

What about the “Proportion of Subjects (PGA = 1) at End of Treatment” value ([2]; age 65 yr) of the same compound?
Its value is 19.3 (13, 26) %.

And the “Proportion of Subjects (PGA = 2) at End of Treatment” value ([2]; age 65 yr)?
The value was 28.7 (22, 36) %.

What about the “Proportion of Subjects (PGA = 3) at End of Treatment” value ([2]; age 65 yr) of the same compound?
The value was 27.1 (19, 35) %.

And the “Proportion of Responders … of Treatment” value ([2]; age 75 yr)?
The value was 53.0 (45, 62) %.

What about the “Proportion of Subjects (PGA = 1) at End of Treatment” value ([2]; age 75 yr) of the same compound?
Its value is 22.8 (16, 30) %.

And the “Proportion of Subjects (PGA = 2) at End of Treatment” value ([2]; age 75 yr)?
Its value is 30.2 (23, 37) %.

And the “Proportion of Subjects (PGA = 3) at End of Treatment” value ([2]; age 75 yr)?
The value was 25.8 (18, 33) %.

And the “Proportion of Responders … of Treatment” value ([2]; duration of treatment 4 weeks)?
The value was 4.3 (1, 8) %.

What about the “Proportion of Subjects (PGA = 1) at End of Treatment” value ([2]; duration of treatment 4 weeks) of the same compound?
The value was 1.3 (1, 2) %.

What about the “Proportion of Subjects (PGA = 2) at End of Treatment” value ([2]; duration of treatment 4 weeks) of the same compound?
The value was 3.7 (1, 7) %.

What about the “Proportion of Subjects (PGA = 3) at End of Treatment” value ([2]; duration of treatment 4 weeks) of the same compound?
Its value is 10.5 (5, 16) %.

And the “Proportion of Responders … of Treatment” value ([2]; duration of treatment 8 weeks)?
Its value is 15.2 (10, 21) %.

What about the “Proportion of Subjects (PGA = 1) at End of Treatment” value ([2]; duration of treatment 8 weeks) of the same compound?
The value was 3.6 (1, 7) %.

And the “Proportion of Subjects (PGA = 2) at End of Treatment” value ([2]; duration of treatment 8 weeks)?
Its value is 11.7 (7, 17) %.

And the “Proportion of Subjects (PGA = 3) at End of Treatment” value ([2]; duration of treatment 8 weeks)?
Its value is 22.5 (16, 29) %.

And the “Proportion of Responders … of Treatment” value ([2]; duration of treatment 12 weeks)?
Its value is 23.7 (16, 31) %.

What about the “Proportion of Subjects (PGA = 1) at End of Treatment” value ([2]; duration of treatment 12 weeks) of the same compound?
Its value is 6.6 (3, 11) %.

And the “Proportion of Subjects (PGA = 2) at End of Treatment” value ([2]; duration of treatment 12 weeks)?
The value was 17.1 (11, 24) %.

And the “Proportion of Subjects (PGA = 3) at End of Treatment” value ([2]; duration of treatment 12 weeks)?
Its value is 26.4 (19, 34) %.

What about the “Proportion of Responders … of Treatment” value ([2]; duration of treatment 16 weeks) of the same compound?
The value was 30.2 (23, 38) %.

What about the “Proportion of Subjects (PGA = 1) at End of Treatment” value ([2]; duration of treatment 16 weeks) of the same compound?
The value was 9.2 (5, 14) %.

What about the “Proportion of Subjects (PGA = 2) at End of Treatment” value ([2]; duration of treatment 16 weeks) of the same compound?
The value was 21.0 (14, 28) %.

And the “Proportion of Subjects (PGA = 3) at End of Treatment” value ([2]; duration of treatment 16 weeks)?
Its value is 27.7 (21, 35) %.

What about the “Proportion of Responders … of Treatment” value ([2]; duration of treatment 20 weeks) of the same compound?
The value was 35.4 (28, 43) %.

And the “Proportion of Subjects (PGA = 1) at End of Treatment” value ([2]; duration of treatment 20 weeks)?
The value was 11.9 (7, 17) %.

And the “Proportion of Subjects (PGA = 2) at End of Treatment” value ([2]; duration of treatment 20 weeks)?
The value was 23.6 (17, 31) %.

What about the “Proportion of Subjects (PGA = 3) at End of Treatment” value ([2]; duration of treatment 20 weeks) of the same compound?
The value was 28.0 (21, 35) %.

And the “Proportion of Responders … of Treatment” value ([2]; duration of treatment 24 weeks)?
The value was 40.4 (33, 48) %.

And the “Proportion of Subjects (PGA = 1) at End of Treatment” value ([2]; duration of treatment 24 weeks)?
The value was 14.7 (9, 21) %.

What about the “Proportion of Subjects (PGA = 2) at End of Treatment” value ([2]; duration of treatment 24 weeks) of the same compound?
The value was 25.7 (19, 33) %.

And the “Proportion of Subjects (PGA = 3) at End of Treatment” value ([2]; duration of treatment 24 weeks)?
The value was 28.2 (21, 35) %.

Source: US20150202172A1, “NOVEL METHOD OF USE” (Glaxo Group Limited, priority 2014, published 2015)
